Reference: patent US7829665B2 (priority 2005, dated 2010)
pIC50: −log10 of the molar value. Where two headings read alike, the source gives them in different places.

Molecular target: T1, full-length NS3/NS4A-2 (HCV NS3 protease) (Hepatitis C virus genotype 1a, UniProt P27958)
T1 construct: Recombinant E. coli or Baculovirus full-length NS3 was diluted to 3.33 μM with assay buffer; made in house; host or cells: E. coli or baculovirus (BV) expression system
Test: NS3-NS4 protease assay / NS3 inhibition assay (RETS1 substrate, fluorescence kinetic read)
Assay type: biochemical
Conditions: read-out: NS3-NS4 IC50
Experimental: NS3 complex formation with NS4A-2.
Recombinant E. coli or Baculovirus full-length NS3 was diluted to 3.33 μM with assay buffer and transferred material to an eppendorf tube and place in water bath in 4° C. refrigerator. The appropriate amount of NS4A-2 to 8.3 mM in assay buffer was added to equal the volume of NS3 in step 2.1.1 (conversion factor—3.8 mg/272 μL assay buffer). The material was transferred to an eppendorf tube and place in water bath in 4° C. refrigerator.
After equilibration to 4° C., equal volumes of NS3 and NS4A-2 solutions were combined in an eppendorf tube, mix gently with a manual pipettor, and incubate mixture for 15 minutes in the 4° C. water bath. Final concentrations in the mixture are 1.67 μM NS3, 4.15 mM NS4A-2 (2485-fold molar excess NS4A-2).
After 15 minutes at 4° C., the NS3/NS4A-2 eppendorf tube was removed and place it in a room temperature water bath for 10 minutes. NS3/NS4A-2 was alliquoted at appropriate volumes and store at −80° C. (E. coli NS3 run at 2 nM in assay, aliquot at 25 μL. BV NS3 run at 3 nM in assay, aliquot at 30 μL).
Sample compounds were dissolved to 10 mM in DMSO then diluted to 2.5 mM (1:4) in DMSO. Typically, compounds were added to an assay plate at 2.5 mM concentration, yielding upon dilution a starting concentration of 50 microM in the assay inhibition curve. Compounds were serial diluted in assay buffer to provide test solutions at lower concentrations.
The E. coli. NS3/NS4A-2 was diluted to 4 nM NS3 (1:417.5 of 1.67 μM stock−18 μL 1.67 μM stock+7497 μL assay buffer). The BV NS3/NS4A-2 was diluted to 6 nM NS3 (1:278.3 of 1.67 μM stock−24 μL 1.67 μM stock+6655 μL assay buffer). Using the manual multichannel pipettor, careful not to introduce bubbles into the plate, add 50 μL assay buffer to wells A01-H01 of a black Costar 96-well polypropylene storage plate.
Using the manual multichannel pipettor, careful not to introduce bubbles into the plate, add 50 μL of diluted NS3/NS4A-2 from step 2.2.6 to wells A02-H12 of plate in step 2.2.7. Using the manual multichannel pipettor, careful not to introduce bubbles into the plate, transfer 25 μL of the wells in drug dilution plate in step 2.2.5 to corresponding wells in assay plate in step 2.2.8. Change tips on multichannel pipettor for each row of compounds transferred. Using the manual multichannel pipettor, careful not to introduce bubbles into the plate, mix the wells from the assay plate in step 2.2.9 by aspirating and dispensing 35 μL of the 75 μL in each well five times. Change tips on multichannel pipettor for each row of wells mixed. Cover plate with a polystyrene plate lid and pre-incubate the plate from step 2.2.10 containing NS3 protease and sample compounds 10 minutes at room temperature. While plate from step 2.2.11 is pre-incubating, dilute RETS1 substrate in a 15 mL polypropylene centrifuge tube. Dilute RETS1 substrate to 8 μM (1:80.75 of 646 μM stock−65 μL 646 μM stock+5184 μL assay buffer).
After the plate in step is done pre-incubating, and using the manual multichannel, add 25 μL of substrate to all wells on the plate. Quickly mix the plate as in step 2.2.10, mixing 65 μL of the 100 μL in the wells.
Read the plate in kinetic mode on the Molecular Devices SpectraMax Gemini XS plate reader. Reader settings: Read time: 30 minutes, Interval: 36 seconds, Reads: 51, Excitation λ: 335 nm, Emission λ: 495 nm, cutoff: 475 nm, Automix: off, Calibrate: once, PMT: high, Reads/well: 6, Vmax pts: 21 or 28/51 depending on length of linearity of reaction
IC50 s are determined using a four parameter curve fit equation, and converted to Ki's using the following Km's: • Full-length E. coli NS3—2.03 μM • Full-length BV NS3—1.74 μM where Ki=IC50/(1+[S]/Km)) • Quantitation by ELISA of the selectable marker protein, Neomycin phosphotransferase II (NPTII) in the HCV Sub-Genomic Replicon, GS4.3

[1] = recombinant E. coli or Baculovirus full-length NS3 with NS4A-2

T1 sequence (P27958 1027-1657): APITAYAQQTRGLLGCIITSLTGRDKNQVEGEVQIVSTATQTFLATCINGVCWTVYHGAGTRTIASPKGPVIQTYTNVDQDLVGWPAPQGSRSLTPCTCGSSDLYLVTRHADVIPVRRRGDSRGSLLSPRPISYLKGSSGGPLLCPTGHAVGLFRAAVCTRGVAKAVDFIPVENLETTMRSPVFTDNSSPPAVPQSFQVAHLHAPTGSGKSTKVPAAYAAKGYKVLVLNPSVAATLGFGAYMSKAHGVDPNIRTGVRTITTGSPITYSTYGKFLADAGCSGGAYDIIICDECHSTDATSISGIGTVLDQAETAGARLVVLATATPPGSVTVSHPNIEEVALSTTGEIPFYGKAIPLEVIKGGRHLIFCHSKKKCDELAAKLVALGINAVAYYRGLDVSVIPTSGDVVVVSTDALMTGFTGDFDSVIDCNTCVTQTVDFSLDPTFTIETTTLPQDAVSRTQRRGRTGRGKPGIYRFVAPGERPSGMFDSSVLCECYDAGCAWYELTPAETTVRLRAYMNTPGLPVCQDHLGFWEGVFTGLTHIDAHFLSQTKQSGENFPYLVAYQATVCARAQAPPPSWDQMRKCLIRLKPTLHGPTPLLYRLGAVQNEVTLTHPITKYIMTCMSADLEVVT

| Structure (SMILES) | pIC50 [1] | also measured |
| --- | --- | --- |
| CC(C)C(C(C)C)S(=O)(=O)NC(=O)[C@@]12C[C@H]1/C=C\CCCCC[C@H](NC(=O)OC(C)(C)C)C(=O)N1CCC[C@H]1C(=O)N2 [Compound 2209] | > 6.00 |  |
| CN(c1ccc(Cl)cc1)S(=O)(=O)NC(=O)[C@@]12C[C@H]1/C=C\CCCCC[C@H](NC(=O)OC(C)(C)C)C(=O)N1CCC[C@H]1C(=O)N2 [Compound 2226] | > 5.00 |  |
| CC(C)(C)OC(=O)N[C@H]1CCCCC/C=C\[C@@H]2C[C@@]2(C(=O)NS(=O)(=O)Nc2ccncc2)NC(=O)[C@@H]2CCCN2C1=O [Compound 407] | < 5.00 |  |
| CC(C)(C)OC(=O)N[C@H]1CCCCC/C=C\[C@@H]2C[C@@]2(C(=O)NS(=O)(=O)NCCc2cccnc2)NC(=O)[C@@H]2CCCN2C1=O [Compound 424] | < 5.00 |  |
| CN(Cc1ccccc1)S(=O)(=O)NC(=O)[C@@]12C[C@H]1/C=C\CCCCC[C@H](NC(=O)OC(C)(C)C)C(=O)N1CCC[C@H]1C(=O)N2 [Compound 417] | > 5.00 |  |
| O=C(N[C@H]1CCCCC/C=C\[C@@H]2C[C@@]2(C(=O)NS(=O)(=O)C2CC2)NC(=O)[C@@H]2CCCN2C1=O)OC1CCCC1 [Compound 312] | > 6.00 |  |
| CC(C)(C)OC(=O)N[C@H]1CCCCC/C=C\[C@@H]2C[C@@]2(C(=O)NC2CC2)NC(=O)[C@@H]2CCCN2C1=O [Compound 2318] |  | pIC50 (Table 22): > 6.00 |
| C[C@H](NC(=O)O[C@@H]1C[C@H]2C(=O)N[C@]3(C(=O)O)C[C@H]3/C=C\CCCCC[C@H](NC(=O)OC(C)(C)C)C(=O)N2C1)c1ccc(F)cn1 [Compound 147] | < 5.00 |  |
| CC[C@@H]1C[C@H]2C(=O)N[C@]3(C(=O)O)C[C@H]3/C=C\CCCCC[C@H](NC(=O)OC3CCCC3)C(=O)N2C1 [Compound 313] | > 5.00 |  |
| CC(C)(C)OC(=O)NC1CCCCCC=CC2CC2(C(=O)NCc2cccc(Cl)c2)NC(=O)C2CCCN2C1=O (stereo not shown) [Compound 2309] |  | pIC50 (Table 22): > 6.00 |
| CC(C)(C)OC(=O)N[C@H]1CCCCC/C=C\[C@@H]2C[C@@]2(C(=O)NS(=O)(=O)Cc2ccc(Cl)cc2)NC(=O)[C@@H]2CCCN2C1=O [Compound 2119] | > 6.00 |  |
| CC(C)(C)CNC(=O)[C@@]12C[C@H]1/C=C\CCCCC[C@H](NC(=O)OC(C)(C)C)C(=O)N1CCC[C@H]1C(=O)N2 [Compound 2315] |  | pIC50 (Table 22): > 6.00 |
| CC(C)(C)C(O)C(=O)N[C@H]1CCCCC/C=C\[C@@H]2C[C@@]2(C(=O)NS(=O)(=O)C2CC2)NC(=O)[C@@H]2C[C@@H](OC(=O)N3Cc4cccc(F)c4C3)CN2C1=O (single isomer, unassigned) [Compound 248] | > 7.00 |  |
| COc1ccccc1NC(=O)[C@@]12C[C@H]1/C=C\CCCCC[C@H](NC(=O)OC(C)(C)C)C(=O)N1CCC[C@H]1C(=O)N2 [Compound 2313] |  | pIC50 (Table 22): > 6.00 |
| CC(C)(C)OC(=O)N[C@H]1CCCCCCC[C@@H]2C[C@@]2(C(=O)O)NC(=O)C2Cc3ccccc3CN2C1=O (stereo partly drawn) [Compound 2011, (1aR,9S,19aR)-9-(tert-butoxycarbonyl)-10,18-dioxo-1a,2,3,4,5,6,7,8,9,10,12,17,17a,18,19,19a-hexadecahydro-1H-2,5-diaza-bicyclo[13.1.0]hexadec-1(15)-eno[5,4-b]isoquinoline-19a-carboxylic acid] | < 5.00 |  |
| O=C(N[C@H]1CCCCC/C=C\[C@@H]2C[C@@]2(C(=O)O)NC(=O)[C@@H]2CCCN2C1=O)C1CC1 [Compound 315] | > 5.00 |  |
| CCCC1(S(=O)(=O)NC(=O)[C@@]23C[C@H]2/C=C\CCCCC[C@H](NC(=O)OC(C)(C)C)C(=O)N2CCC[C@H]2C(=O)N3)CC1 [Compound 304] | > 5.00 |  |

| Structure (SMILES) | pIC50 [1] | also measured |
| --- | --- | --- |
| CC(C)(C)OC(=O)N[C@H]1CCCCC/C=C\[C@@H]2C[C@@]2(C(=O)NS(=O)(=O)c2cc(Cl)ccc2F)NC(=O)[C@@H]2CCCN2C1=O [Compound 2150] | > 5.00 |  |
| CC(C)(C)OC(=O)N[C@H]1CCCCC/C=C\[C@@H]2C[C@@]2(C(=O)NCCN2CCOCC2)NC(=O)[C@@H]2C[C@@H](OC(=O)N3Cc4cccc(F)c4C3)CN2C1=O [Compound 607] | < 5.00 |  |
| C[C@H](NC(=O)[C@@]12C[C@H]1/C=C\CCCCC[C@H](NC(=O)OC(C)(C)C)C(=O)N1C[C@H](OC(=O)N3Cc4ccccc4C3)C[C@H]1C(=O)N2)c1ccccc1 [Compound 2502] |  | pIC50 (Table 24): < 5.00 |
| C[C@H](NC(=O)[C@@]12C[C@H]1/C=C\CCCCC[C@H](NC(=O)OC(C)(C)C)C(=O)N1CCC[C@H]1C(=O)N2)c1ccncc1 [Compound 501] | < 5.00 |  |
| CC1CCCN1S(=O)(=O)NC(=O)[C@@]12C[C@H]1/C=C\CCCCC[C@H](NC(=O)OC(C)(C)C)C(=O)N1CCC[C@H]1C(=O)N2 (stereo partly shown) [Compound 2250] | > 5.00 |  |
| CC(C)(C)OC(=O)N[C@H]1CCCCC/C=C\[C@@H]2C[C@@]2(C(=O)NS(=O)(=O)Nc2ccc(F)cc2)NC(=O)[C@@H]2CCCN2C1=O [Compound 2237] | > 6.00 |  |
| CC(C)(C)OC(=O)N[C@H]1CCCCC/C=C\[C@@H]2C[C@@]2(C(=O)N[S@+]([O-])C(C)(C)C)NC(=O)[C@@H]2C[C@@H](OC(=O)N3Cc4ccccc4C3)CN2C1=O [Compound 2604] |  | pIC50 (Table 25): < 5.00 |
| CS(=O)(=O)NC(=O)[C@@]12C[C@H]1/C=C\CCCCC[C@H](NC(=O)OC1CCCC1)C(=O)N1C[C@H](OC(=O)N3CCc4ccccc4C3)C[C@H]1C(=O)N2 [Compound 119] | > 7.00 |  |
| CC(C)(C)OC(=O)N[C@H]1CCCCC/C=C\[C@@H]2C[C@@]2(C(=O)NS(=O)(=O)Nc2cccnc2)NC(=O)[C@@H]2CCCN2C1=O [Compound 406] | < 5.00 |  |
| CC(C)(C)OC(=O)N[C@H]1CCCCC/C=C\[C@@H]2C[C@@]2(C(=O)NS(=O)(=O)N2CCOCC2)NC(=O)[C@@H]2CCCN2C1=O [Compound 2204] | > 6.00 |  |
| CN(c1ccccc1Cl)S(=O)(=O)NC(=O)[C@@]12C[C@H]1/C=C\CCCCC[C@H](NC(=O)OC(C)(C)C)C(=O)N1CCC[C@H]1C(=O)N2 [Compound 405] | > 5.00 |  |
| O=C(N[C@H]1CCCCCCC[C@@H]2C[C@@]2(C(=O)NS(=O)(=O)c2ccccc2)NC(=O)C2Cc3cc(Oc4cccc(Cl)c4)ccc3CN2C1=O)OC1CCCC1 (stereo partly drawn) [Compound 2010, Cyclopentyl (1aR,9S,19aR)-15-(3-chlorophenoxy)-10,18-dioxo-19a-(phenylsulfonylcarbamoyl)-1a,2,3,4,5,6,7,8,9,10,12,17,17a,18,19,19a-hexadecahydro-1H-2,5-diaza-bicyclo[13.1.0]hexadec-1(15)-eno[5,4-b]isoquinolin-9-ylcarbamate] | > 5.00 |  |
| CC(C)(C)CC(=O)N[C@H]1CCCCC/C=C\[C@@H]2C[C@@]2(C(=O)NS(=O)(=O)C2CC2)NC(=O)C2CCCN2C1=O (stereo partly shown) [Compound 2141] | > 5.00 |  |
| CN(C)S(=O)(=O)NC(=O)[C@@]12C[C@H]1/C=C\CCCCC[C@H](NC(=O)OC(C)(C)C)C(=O)N1CCC[C@H]1C(=O)N2 [Compound 2202] | > 5.00 |  |
| CC(C)(C)OC(=O)N[C@H]1CCCCC/C=C\[C@@H]2C[C@@]2(C(=O)NS(=O)(=O)NCc2ccccn2)NC(=O)[C@@H]2CCCN2C1=O [Compound 425] | < 5.00 |  |
| CC(C)COC(=O)N[C@H]1CCCCC/C=C\[C@@H]2C[C@@]2(C(=O)NS(=O)(=O)Nc2ccc(Cl)cc2)NC(=O)[C@@H]2CCCN2C1=O [Compound 419] | > 5.00 |  |
| CN1CCC(N(C2CC2)S(=O)(=O)NC(=O)[C@@]23C[C@H]2/C=C\CCCCC[C@H](NC(=O)OC(C)(C)C)C(=O)N2CCC[C@H]2C(=O)N3)CC1 [Compound 2211] | > 6.00 |  |
